This is an account of results in US11702404B2, “GLP-1R modulating compounds” (priority 2019, dated 2023).

Series [1] can be described thus: Microsomal stability, human liver microsomes (predicted hepatic clearance). To be noted: predicted from in vitro microsomal stability data.
In series [2] the target is GLP-1R (Homo sapiens, UniProt P43220). Nature of the series: GLP-1R activation: cAMP increase in CHO cells stably expressing GLP-1R. Type of series: cell-based. To be noted: cAMP increase, CHO cells stably expressing GLP-1R, 10 point dose response, 30 minutes incubation; read-out: EC50.

As a reminder, the EC50 is the midpoint of the concentration-response curve.

GLP-1R, sequence (P43220 24-463): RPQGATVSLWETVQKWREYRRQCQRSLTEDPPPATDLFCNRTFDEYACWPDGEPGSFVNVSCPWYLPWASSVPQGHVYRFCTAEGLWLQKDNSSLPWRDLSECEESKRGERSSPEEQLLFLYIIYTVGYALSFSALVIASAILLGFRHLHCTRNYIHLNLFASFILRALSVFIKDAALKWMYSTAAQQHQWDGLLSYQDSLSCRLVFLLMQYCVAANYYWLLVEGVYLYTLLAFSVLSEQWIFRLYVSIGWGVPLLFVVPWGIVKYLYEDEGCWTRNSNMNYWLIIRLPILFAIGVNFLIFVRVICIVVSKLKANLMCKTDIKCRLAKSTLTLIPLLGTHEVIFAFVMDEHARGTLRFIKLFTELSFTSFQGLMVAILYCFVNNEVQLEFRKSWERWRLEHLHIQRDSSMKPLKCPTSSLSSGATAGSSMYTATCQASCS

Take `N#Cc1ccc(COc2cccc(-c3cc(F)c(Cc4nc5ccc(C(=O)NS(=O)(=O)C6CC6)cc5n4C[C@@H]4CCO4)cc3F)n2)c(F)c1` [Example 163, (S)-2-(4-(6-((4-cyano-2-fluorobenzyl)oxy)pyridin-2-yl)-2,5-difluorobenzyl)-N-(cyclopropylsulfonyl)-1-(oxetan-2-ylmethyl)-1H-benzo[d]imidazole-6-carboxamide]: the “Predicted Hepatic Clearance (Pred. Cl.)” value in series [1] was 5 mL/min/kg. Besides, in series [2], the EC50 came to 1.41 nM.

`COCCn1c(Cc2cc(F)c(-c3ccc(F)c(NCc4ccc(C#N)cc4F)n3)cc2F)nc2ccc(C(=O)O)cc21` [Example 164, 2-(4-(6-((4-cyano-2-fluorobenzyl)amino)-5-fluoropyridin-2-yl)-2,5-difluorobenzyl)-1-(2-methoxyethyl)-1H-benzo[d]imidazole-6-carboxylic acid]: the “Predicted Hepatic Clearance (Pred. Cl.)” value in series [1] is 6.7 mL/min/kg. Moreover, in series [2], the EC50 was determined as 32.9 nM.

As for `N#CCC1(Cn2c(Cc3ccc(-c4ccc(F)c(OCc5ccc(C#N)cc5F)n4)cc3F)nc3c(F)cc(C(=O)O)cc32)CC1` [Example 165, 2-(4-(6-((4-cyano-2-fluorobenzyl)oxy)-5-fluoropyridin-2-yl)-2-fluorobenzyl)-1-((1-(cyanomethyl)cyclopropyl)methyl)-4-fluoro-1H-benzo[d]imidazole-6-carboxylic acid], the “Predicted Hepatic Clearance (Pred. Cl.)” value in series [1] is 4 mL/min/kg. For the same compound, the EC50 in series [2] was 0.01 nM.

Regarding `N#Cc1ccc(COc2nc(-c3cc(F)c(Cc4nc5ccc(C(=O)O)cc5n4C[C@@H]4CCO4)c(F)c3F)ncc2F)c(F)c1` [Example 166, (S)-2-(4-(4-((4-cyano-2-fluorobenzyl)oxy)-5-fluoropyrimidin-2-yl)-2,3,6-trifluorobenzyl)-1-(oxetan-2-ylmethyl)-1H-benzo[d]imidazole-6-carboxylic acid], the “Predicted Hepatic Clearance (Pred. Cl.)” value in series [1] was 4.83 mL/min/kg. The EC50 in series [2] is 0.06 nM.

Regarding `N#Cc1ccc(COc2nc(-c3cc(F)c(Cc4nc5c(F)cc(C(=O)O)cc5n4CC4(CF)CC4)cc3F)ncc2F)c(F)c1` [Example 167, 2-(4-(4-((4-cyano-2-fluorobenzyl)oxy)-5-fluoropyrimidin-2-yl)-2,5-difluorobenzyl)-4-fluoro-1-((1-(fluoromethyl)cyclopropyl)methyl)-1H-benzo[d]imidazole-6-carboxylic acid], the “Predicted Hepatic Clearance (Pred. Cl.)” value in series [1] is 6 mL/min/kg. For the same compound, in series [2], the EC50 amounted to 0.11 nM.

As to `N#CCC1(Cn2c(Cc3ccc(-c4ccnc(OCc5ccc(C#N)cc5F)n4)cc3F)nc3c(F)cc(C(=O)O)cc32)CC1` [Example 168, 2-(4-(2-((4-cyano-2-fluorobenzyl)oxy)pyrimidin-4-yl)-2-fluorobenzyl)-1-((1-(cyanomethyl)cyclopropyl)methyl)-4-fluoro-1H-benzo[d]imidazole-6-carboxylic acid], the “Predicted Hepatic Clearance (Pred. Cl.)” value in series [1] was under 1.83 mL/min/kg. Besides, the EC50 in series [2] amounted to 1.06 nM.

In the case of `COCCn1c(Cc2ccc(-c3ncc(F)c(OCc4ccc(C#N)cc4F)n3)c(F)c2F)nc2ccc(C(=O)O)cc21` [Example 169, 2-(4-(4-((4-cyano-2-fluorobenzyl)oxy)-5-fluoropyrimidin-2-yl)-2,3-difluorobenzyl)-1-(2-methoxyethyl)-1H-benzo[d]imidazole-6-carboxylic acid], the “Predicted Hepatic Clearance (Pred. Cl.)” value in series [1] was 5.33 mL/min/kg. For the same compound, in series [2], the EC50 worked out at 4.31 nM.

On to `COCCn1c(Cc2ccc(-c3cccc(NCc4ccc(C#N)cc4F)n3)cc2F)nc2ccc(C(=O)O)cc21` [Example 170, 2-(4-(6-((4-cyano-2-fluorobenzyl)amino)pyridin-2-yl)-2-fluorobenzyl)-1-(2-methoxyethyl)-1H-benzo[d]imidazole-carboxylic acid], for which the “Predicted Hepatic Clearance (Pred. Cl.)” value in series [1] is 6.33 mL/min/kg. The EC50 in series [2] was 509 nM.

Turning to `COCCn1c(Cc2ccc(-c3cccc(OCc4ccc(C#N)cc4F)n3)cc2C(F)(F)F)nc2ccc(C(=O)O)cc21` [Example 172, 2-(4-(6-((4-cyano-2-fluorobenzyl)oxy)pyridin-2-yl)-2-(trifluoromethyl)benzyl)-1-(2-methoxyethyl)-1H-benzo[d]imidazole-carboxylic acid], in series [1], the “Predicted Hepatic Clearance (Pred. Cl.)” value is 9.5 mL/min/kg. Moreover, the EC50 in series [2] worked out at 38 nM.

Turning to `COCCn1c(Cc2ccc(-c3cccc(OCc4ccc(C#N)cc4F)n3)cc2C2=CCN(C(=O)OC(C)(C)C)CC2)nc2ccc(C(=O)O)cc21` [Example 173, 2-(2-(1-(tert-butoxycarbonyl)-1,2,3,6-tetrahydropyridin-4-yl)-4-(6-((4-cyano-2-fluorobenzyl)oxy)pyridin-2-yl)benzyl)-1-(2-methoxyethyl)-1H-benzo[d]imidazole-6-carboxylic acid], the “Predicted Hepatic Clearance (Pred. Cl.)” value in series [1] was 5 mL/min/kg. The EC50 in series [2] is 774 nM.

Turning to `COCCn1c(Cc2c(F)cc(-c3cccnc3OCc3ccc(Cl)cc3F)cc2F)nc2ccc(C(=O)O)cc21` [Example 174, 2-(4-(2-((4-chloro-2-fluorobenzyl)oxy)pyridin-3-yl)-2,6-difluorobenzyl)-1-(2-methoxyethyl)-1H-benzo[d]imidazole-carboxylic acid], the “Predicted Hepatic Clearance (Pred. Cl.)” value in series [1] is 5.67 mL/min/kg. Moreover, the EC50 in series [2] stood at 32.9 nM.

In the case of `COCCn1c(Cc2ccc(-c3cccc(OCc4ccc(C#N)cc4F)n3)cc2-c2ccncc2)nc2ccc(C(=O)O)cc21` [Example 175, 2-(4-(6-((4-cyano-2-fluorobenzyl)oxy)pyridin-2-yl)-2-(pyridin-4-yl)benzyl)-1-(2-methoxyethyl)-1H-benzo[d]imidazole-6-carboxylic acid], the “Predicted Hepatic Clearance (Pred. Cl.)” value in series [1] is 15.7 mL/min/kg. In series [2], the EC50 was 9270 nM.

Regarding `COCCn1c(Cc2ccc(-c3cccc(OCc4ccc(C#N)cc4F)n3)cc2-c2ccsc2)nc2ccc(C(=O)O)cc21` [Example 176, 2-(4-(6-((4-cyano-2-fluorobenzyl)oxy)pyridin-2-yl)-2-(thiophen-3-yl)benzyl)-1-(2-methoxyethyl)-1H-benzo[d]imidazole-6-carboxylic acid], the “Predicted Hepatic Clearance (Pred. Cl.)” value in series [1] was under 1.83 mL/min/kg. Besides, the EC50 in series [2] came to 273 nM.

In the case of `COCCn1c(Cc2c(F)cc(-c3nccnc3OCc3ccc(C#N)cc3F)cc2F)nc2ccc(C(=O)O)cc21` [Example 177, 2-(4-(3-((4-cyano-2-fluorobenzyl)oxy)pyrazin-2-yl)-2,6-difluorobenzyl)-1-(2-methoxyethyl)-1H-benzo[d]imidazole-carboxylic acid], the “Predicted Hepatic Clearance (Pred. Cl.)” value in series [1] was 7 mL/min/kg. Besides, in series [2], the EC50 came out at 335 nM.

In the case of `COCCn1c(Cc2ccc(-c3cccc(OCc4ccc(C#N)cc4F)n3)cc2C2CC2)nc2ccc(C(=O)O)cc21` [Example 178, 2-(4-(6-((4-cyano-2-fluorobenzyl)oxy)pyridin-2-yl)-2-cyclopropylbenzyl)-1-(2-methoxyethyl)-1H-benzo[d]imidazole-6-carboxylic acid], in series [1], the “Predicted Hepatic Clearance (Pred. Cl.)” value is 9.83 mL/min/kg. Also, in series [2], the concentration for a half-maximal effect (EC50) came out at 32.5 nM.

For the compound `COCCn1c(Cc2c(F)cc(-c3cccnc3OCc3ccc(C#N)cc3F)cc2F)nc2ccc(C(=O)O)cc21` [Example 179, 2-(4-(2-((4-cyano-2-fluorobenzyl)oxy)pyridin-3-yl)-2,6-difluorobenzyl)-1-(2-methoxyethyl)-1H-benzo[d]imidazole-carboxylic acid], the “Predicted Hepatic Clearance (Pred. Cl.)” value in series [1] is 3.5 mL/min/kg. Also, the EC50 in series [2] is 45.6 nM.

Consider `COCCn1c(Cc2ccc(-c3cccnc3OCc3ccc(C#N)cc3F)cc2F)nc2ccc(C(=O)O)cc21` [Example 180, 2-(4-(2-((4-cyano-2-fluorobenzyl)oxy)pyridin-3-yl)-2-fluorobenzyl)-1-(2-methoxyethyl)-1H-benzo[d]imidazole-carboxylic acid], for which the “Predicted Hepatic Clearance (Pred. Cl.)” value in series [1] was 6.33 mL/min/kg. For the same compound, in series [2], the EC50 was determined as 257 nM.

On to `COCCn1c(Cc2ccc(-c3cccc(OCc4ccc(C#N)cc4F)n3)cc2O)nc2ccc(C(=O)O)cc21` [Example 181, 2-(4-(6-((4-cyano-2-fluorobenzyl)oxy)pyridin-2-yl)-2-hydroxybenzyl)-1-(2-methoxyethyl)-1H-benzo[d]imidazole-6-carboxylic acid], for which the “Predicted Hepatic Clearance (Pred. Cl.)” value in series [1] was 2.83 mL/min/kg. Further, the EC50 in series [2] worked out at 15.5 nM.

As for `COCCn1c(Cc2ccc(-c3ccccc3OCc3ccc(C#N)cc3F)cc2F)nc2ccc(C(=O)O)cc21` [Example 182, 2-((2′-((4-cyano-2-fluorobenzyl)oxy)-3-fluoro-[1,1′-biphenyl]-4-yl)methyl)-1-(2-methoxyethyl)-1H-benzo[d]imidazole-carboxylic acid], the “Predicted Hepatic Clearance (Pred. Cl.)” value in series [1] was 7.67 mL/min/kg. Moreover, in series [2], the concentration for a half-maximal effect (EC50) was determined as 449 nM.

For the compound `COCCn1c(Cc2ccc(-c3cccc(OCc4ccc(C#N)cc4F)n3)cc2-c2ccccc2)nc2ccc(C(=O)O)cc21` [Example 184, 2-((5-(6-((4-cyano-2-fluorobenzyl)oxy)pyridin-2-yl)-[1,1′-biphenyl]-2-yl)methyl)-1-(2-methoxyethyl)-1H-benzo[d]imidazole-6-carboxylic acid], in series [1], the “Predicted Hepatic Clearance (Pred. Cl.)” value is under 1.83 mL/min/kg. Further, in series [2], the EC50 came out at 369 nM.

`COCCn1c(Cc2c(F)cc(-c3cccnc3OCc3ccccc3)cc2F)nc2ccc(C(=O)O)cc21` [Example 186, 2-(4-(2-(benzyloxy)pyridin-3-yl)-2,6-difluorobenzyl)-1-(2-methoxyethyl)-1H-benzo[d]imidazole-carboxylic acid]: in series [1], the “Predicted Hepatic Clearance (Pred. Cl.)” value is 11.5 mL/min/kg. For the same compound, the 50% effective concentration (EC50) in series [2] came to 812 nM.

Consider `COCCn1c(Cc2ccc(-c3cccc(OCc4ccc(C#N)cc4F)n3)cc2-c2cccc([N+](=O)[O-])c2)nc2ccc(C(=O)O)cc21` [Example 187, 2-((5-(6-((4-cyano-2-fluorobenzyl)oxy)pyridin-2-yl)-3′-nitro-[1,1′-biphenyl]-2-yl)methyl)-1-(2-methoxyethyl)-1H-benzo[d]imidazole-6-carboxylic acid], for which the “Predicted Hepatic Clearance (Pred. Cl.)” value in series [1] was 14.8 mL/min/kg. Also, the EC50 in series [2] was determined as 723 nM.
